Values of other authors as cited in patent publication US12697312B2, “Methods and devices for treatment of eyelid ptosis” (priority 2022, dated 2026).

Key:
Müllers muscle = details: by activating post synaptic neuromuscular junction and muscle contraction
dry eye = details: eye drops containing retinyl palmitate 0.05 percent; Kim et al. (2009)

Row | SMILES | effect on the eyelid (ptosis) (Müllers muscle) | treatment of dry eye (keratoconjunctivitis sicca) (dry eye)
1 | CNC[C@H](O)c1cccc(O)c1 [Phenylephrine] | shown to lift the eyelid | –
2 | CCCCCCCCCCCCCCCC(=O)OC/C=C(C)/C=C/C=C(C)/C=C/C1=C(C)CCCC1(C)C [retinyl palmitate] | – | effective treatment for dry eye
